Source: patent US20250250230A1, “HETEROCYCLIC COMPOUND” (TAKEDA PHARMACEUTICAL COMPANY LIMITED, priority 2022, published 2025)

Target: T1, human orexin type 2 receptor (Homo sapiens, UniProt O43614)
T1 construct: expressed in transfected cells
T1 sequence (O43614 1-444): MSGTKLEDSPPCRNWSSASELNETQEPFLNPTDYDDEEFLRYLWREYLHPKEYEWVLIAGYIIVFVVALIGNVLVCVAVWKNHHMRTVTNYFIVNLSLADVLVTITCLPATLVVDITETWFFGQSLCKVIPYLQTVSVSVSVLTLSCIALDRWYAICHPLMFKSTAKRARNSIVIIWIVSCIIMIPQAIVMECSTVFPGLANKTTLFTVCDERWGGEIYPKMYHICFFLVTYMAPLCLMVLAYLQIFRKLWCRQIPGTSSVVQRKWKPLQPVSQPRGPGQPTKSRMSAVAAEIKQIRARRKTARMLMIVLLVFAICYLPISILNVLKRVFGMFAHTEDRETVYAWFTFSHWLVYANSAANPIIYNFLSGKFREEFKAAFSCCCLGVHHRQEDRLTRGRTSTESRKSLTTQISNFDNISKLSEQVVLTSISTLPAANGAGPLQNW
Assay: Measurement of orexin type 2 receptor agonist activity (calcium fluorescence, Fluo-4 AM, FDSS)
Type: cell-based
Settings: test compound 3 μM; CHO cells expressing human OX2 receptor; DMSO = 0%, orexin A (human) = 100%
In short: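 CHO-K1 cells stably expressing human OX2R were loaded with Fluo-4 AM (30 min 37 °C, 30 min RT) in HEPES-buffered HBSS with 0.1% BSA and probenecid. Calcium fluorescence was followed on FDSS for 2 min after compound addition; activity normalised to DMSO (0%) and 10 nM orexin A (100%).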

OX2R agonist activity (3 μM, %) [%] | SMILES
98 | CCS(=O)(=O)NC(C)[C@@H]1CCN1C(=O)[C@@H]1C[C@@]1(F)c1ccccc1-c1c(F)cccc1F (stereo partly drawn) [Example 363, N-[(1R)-1-{(2S)-1-[(1S,2S)-2-(2′,6′-difluoro[1,1′-biphenyl]-2-yl)-2-fluorocyclopropane-1-carbonyl]azetidin-2-yl}ethyl]ethanesulfonamide, or N-[(1S)-1-{(2S)-1-[(1S,2S)-2-(2′,6′-difluoro[1,1′-biphenyl]-2-yl)-2-fluorocyclopropane-1-carbonyl]azetidin-2-yl}ethyl]ethanesulfonamide]
88 | C[C@H]1CN(C(=O)[C@@H]2C[C@@]2(F)c2ccccc2-c2c(F)cccc2F)C[C@@H](CNS(C)(=O)=O)O1 [Example 364, N-({(2S,6S)-4-[(1S,2S)-2-(2′,6′-difluoro[1,1′-biphenyl]-2-yl)-2-fluorocyclopropane-1-carbonyl]-6-methylmorpholin-2-yl}methyl)methanesulfonamide]
103 | CS(=O)(=O)NC[C@@H]1CCN1C(=O)C1(CO)CC1c1ccccc1-c1c(F)cccc1F (stereo partly drawn) [Example 365, N-({(2S)-1-[(1R,2S)-2-(2′,6′-difluoro[1,1′-biphenyl]-2-yl)-1-(hydroxymethyl)cyclopropane-1-carbonyl]azetidin-2-yl}methyl)methanesulfonamide, or N-({(2S)-1-[(1S,2R)-2-(2′,6′-difluoro[1,1′-biphenyl]-2-yl)-1-(hydroxymethyl)cyclopropane-1-carbonyl]azetidin-2-yl}methyl)methanesulfonamide]
93 | CS(=O)(=O)NC[C@@H]1CCN1C(=O)C1CC1c1c(-c2c(F)cccc2F)csc1F (stereo partly drawn) [Example 367, N-{[(2S)-1-{(1R,2R)-2-[4-(2,6-difluorophenyl)-2-fluorothiophen-3-yl]cyclopropane-1-carbonyl}azetidin-2-yl]methyl}methanesulfonamide, or N-{[(2S)-1-{(1S,2S)-2-[4-(2,6-difluorophenyl)-2-fluorothiophen-3-yl]cyclopropane-1-carbonyl}azetidin-2-yl]methyl}methanesulfonamide]
97 | CS(=O)(=O)N[C@H]1CCN(C(=O)C2CC2c2c(-c3c(F)cccc3F)csc2F)C1 (stereo partly drawn) [Example 368, N-[(3S)-1-{(1R,2R)-2-[4-(2,6-difluorophenyl)-2-fluorothiophen-3-yl]cyclopropane-1-carbonyl}pyrrolidin-3-yl]methanesulfonamide, or N-[(3S)-1-{(1S,2S)-2-[4-(2,6-difluorophenyl)-2-fluorothiophen-3-yl]cyclopropane-1-carbonyl}pyrrolidin-3-yl]methanesulfonamide]
84 | CS(=O)(=O)NC[C@H]1CCN1C(=O)[C@@H]1C[C@H]1c1ccccc1-c1c(F)cccc1F [Example 370, N-({(2R)-1-[(1R,2R)-2-(2′,6′-difluoro[1,1′-biphenyl]-2-yl)cyclopropane-1-carbonyl]azetidin-2-yl}methyl)methanesulfonamide]

Continued, compound first:

SMILES | OX2R agonist activity (3 μM, %) [%]
CS(=O)(=O)N[C@@H]1CN(C(=O)[C@@H]2C[C@@]2(F)c2ccccc2-c2c(F)cccc2F)CC[C@H]1O [Example 348, N-{(3R,4R)-1-[(1S,2S)-2-(2′,6′-difluoro[1,1′-biphenyl]-2-yl)-2-fluorocyclopropane-1-carbonyl]-4-hydroxypiperidin-3-yl}methanesulfonamide] | 97
CO[C@H]1C[C@H](NS(C)(=O)=O)CN(C(=O)[C@@H]2C[C@H]2c2ccccc2-c2c(F)cccc2F)C1 [Example 349, N-{(3S,5S)-1-[(1R,2R)-2-(2′,6′-difluoro[1,1′-biphenyl]-2-yl)cyclopropane-1-carbonyl]-5-methoxypiperidin-3-yl}methanesulfonamide] | 97
CO[C@@H]1CCN(C(=O)[C@@H]2C[C@H]2c2ccccc2-c2c(F)cccc2F)C[C@H]1NS(C)(=O)=O [Example 350, N-{(3R,4R)-1-[(1R,2R)-2-(2′,6′-difluoro[1,1′-biphenyl]-2-yl)cyclopropane-1-carbonyl]-4-methoxypiperidin-3-yl}methanesulfonamide] | 102
CS(=O)(=O)NC[C@@H]1CCN1C(=O)[C@@H]1C[C@@]1(F)c1ccccc1-c1c(F)cccc1F [Example 352, N-({(2S)-1-[(1S,2S)-2-(2′,6′-difluoro[1,1′-biphenyl]-2-yl)-2-fluorocyclopropane-1-carbonyl]azetidin-2-yl}methyl)methanesulfonamide] | 96
CS(=O)(=O)NC[C@@H]1CCN1C(=O)[C@@H]1C[C@H]1c1ccccc1-c1c(F)cccc1F [Example 355, N-({(2S)-1-[(1R,2R)-2-(2′,6′-difluoro[1,1′-biphenyl]-2-yl)cyclopropane-1-carbonyl]azetidin-2-yl}methyl)methanesufonamide] | 94
CC1(C(=O)N2CC[C@H]2CNS(C)(=O)=O)CC1(F)c1ccccc1-c1c(F)cccc1F (stereo partly drawn) [Example 356, N-({(2S)-1-[(1R,2S)-2-(2′,6′-difluoro[1,1′-biphenyl]-2-yl)-2-fluoro-1-methylcyclopropane-1-carbonyl]azetidin-2-yl}methyl)methanesulfonamide, or N-({(2S)-1-[(1S,2R)-2-(2′,6′-difluoro[1,1′-biphenyl]-2-yl)-2-fluoro-1-methylcyclopropane-1-carbonyl]azetidin-2-yl}methyl)methanesulfonamide] | 84
C[C@@H]1CN(C(=O)[C@@H]2C[C@@]2(F)c2ccccc2-c2c(F)cccc2F)[C@H]1CNS(C)(=O)=O [Example 357, N-({(2R,3R)-1-[(1S,2S)-2-(2′,6′-difluoro[1,1′-biphenyl]-2-yl)-2-fluorocyclopropane-1-carbonyl]-3-methylazetidin-2-yl}methyl)methanesulfonamide] | 96
CS(=O)(=O)NCC12CC(C1)N(C(=O)[C@@H]1C[C@@]1(F)c1ccccc1-c1c(F)cccc1F)C2 [Example 359, N-({2-[(1S,2S)-2-(2′,6′-difluoro[1,1′-biphenyl]-2-yl)-2-fluorocyclopropane-1-carbonyl]-2-azabicyclo[2.1.1]hexan-4-yl}methyl)methanesulfonamide] | 94
CCS(=O)(=O)NC[C@@H]1[C@H](C)CN1C(=O)[C@@H]1C[C@@]1(F)c1ccccc1-c1c(F)cccc1F [Example 360, N-({(2S,3R)-1-[(1S,2S)-2-(2′,6′-difluoro[1,1′-biphenyl]-2-yl)-2-fluorocyclopropane-1-carbonyl]-3-methylazetidin-2-yl}methyl)ethanesulfonamide] | 103
CCS(=O)(=O)NC(C)[C@H]1CCN1C(=O)[C@@H]1C[C@H]1c1ccccc1-c1c(F)cccc1F (stereo partly drawn) [Example 361, N-[(1R)-1-{(2R)-1-[(1R,2R)-2-(2′,6′-difluoro[1,1′-biphenyl]-2-yl)cyclopropane-1-carbonyl]azetidin-2-yl}ethyl]ethanesulfonamide, or N-[(1S)-1-{(2R)-1-[(1R,2R)-2-(2′,6′-difluoro[1,1′-biphenyl]-2-yl)cyclopropane-1-carbonyl]azetidin-2-yl}ethyl]ethanesulfonamide] | 90
CCS(=O)(=O)NC[C@@H]1CCN1C(=O)[C@@H]1C[C@H]1c1ccccc1-c1c(F)cccc1F [Example 362, N-({(2S)-1-[(1R,2R)-2-(2′,6′-difluoro[1,1′-biphenyl]-2-yl)cyclopropane-1-carbonyl]azetidin-2-yl}methyl)ethanesulfonamide] | 89
